Assay results from ChEMBL document CHEMBL5113460, “Discovery of dual inhibitors of topoisomerase I and Cyclooxygenase-2 for colon cancer therapy” (Eur J Med Chem, 2022).
Calls of active or inactive are those of the source. The calls are words filed in the database; no cut-off is given here.

Columns and labels:
[1] = molecular target: T1, DNA topoisomerase 1 (Homo sapiens) (UniProt P11387); test: Inhibition of topoisomerase 1 (unknown origin) assessed as relaxation of supercoiled plasmid pBR322 DNA at 10 uM incubated for 45 mins by ethidium bromide staining based agarose gel electrophoresis
T1 sequence (whole entry): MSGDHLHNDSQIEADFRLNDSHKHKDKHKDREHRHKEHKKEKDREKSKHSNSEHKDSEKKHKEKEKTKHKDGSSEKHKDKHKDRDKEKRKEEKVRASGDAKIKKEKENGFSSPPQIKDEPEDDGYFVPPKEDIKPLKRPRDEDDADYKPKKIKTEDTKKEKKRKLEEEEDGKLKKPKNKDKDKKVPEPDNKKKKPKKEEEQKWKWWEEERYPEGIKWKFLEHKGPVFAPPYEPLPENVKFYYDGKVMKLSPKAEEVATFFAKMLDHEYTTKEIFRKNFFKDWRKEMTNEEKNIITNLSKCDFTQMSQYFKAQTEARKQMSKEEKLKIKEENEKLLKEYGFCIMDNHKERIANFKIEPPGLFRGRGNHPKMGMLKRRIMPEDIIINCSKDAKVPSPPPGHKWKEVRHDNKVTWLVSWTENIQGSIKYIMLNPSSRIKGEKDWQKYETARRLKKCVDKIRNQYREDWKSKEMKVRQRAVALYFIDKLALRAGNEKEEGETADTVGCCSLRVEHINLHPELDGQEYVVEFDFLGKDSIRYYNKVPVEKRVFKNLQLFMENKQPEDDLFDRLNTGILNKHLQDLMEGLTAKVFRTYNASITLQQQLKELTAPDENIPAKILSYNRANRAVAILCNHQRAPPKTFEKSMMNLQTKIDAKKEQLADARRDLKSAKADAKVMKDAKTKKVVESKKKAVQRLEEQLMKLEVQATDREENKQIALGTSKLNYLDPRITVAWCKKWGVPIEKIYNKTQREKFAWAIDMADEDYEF

[2] = test system: HT-29; test: Antitumor activity against human HT-29 cells assessed as inhibition of cell proliferation incubated for 72 hrs by MTT assay; format: functional, cell-based; settings: HT-29, 72 h
[3] = test system: RKO; test: Antitumor activity against human RKO cells assessed as inhibition of cell proliferation incubated for 72 hrs by MTT assay; format: functional, cell-based
[4] = test system: LoVo; test: Antitumor activity against human LoVo cells assessed as inhibition of cell proliferation incubated for 72 hrs by MTT assay; format: functional, cell-based
[5] = test system: HCT-116; test: Antitumor activity against human HCT-116 cells assessed as inhibition of cell proliferation incubated for 72 hrs by MTT assay; format: functional, cell-based; settings: HCT-116, 72 h
[6] = test system: SW480; test: Antitumor activity against human SW480 cells assessed as inhibition of cell proliferation incubated for 72 hrs by MTT assay; format: functional, cell-based; settings: SW480, 72 h
[7] = molecular target: Prostaglandin G/H synthase 2 (Homo sapiens) (UniProt P35354); test: Inhibition of COX-2 (unknown origin) at 3 uM
[8] = molecular target: Prostaglandin G/H synthase 2 (Homo sapiens) (UniProt P35354); test: Inhibition of COX-2 (unknown origin) at 30 uM
[9] = molecular target: T1, DNA topoisomerase 1 (Homo sapiens); test: Inhibition of topoisomerase 1 (unknown origin) assessed as relaxation of supercoiled plasmid pBR322 DNA at 1 uM incubated for 45 mins by ethidium bromide staining based agarose gel electrophoresis
[10] = Water solubility of compound by HPLC analysis; format: physicochemical
[11] = test system: HT-29; test: Antitumor activity against human HT-29 cells xenografted in BALB/c mouse assessed as inhibition of tumor growth at 30 mg/kg, ip bid and measured after 14 days by vernier caliper method; format: functional; settings: HT-29, 336 h, time 14 day, read-out: TGI
[12] = test system: HT-29; test: Antitumor activity against human HT-29 cells xenografted in BALB/c mouse assessed as reduction of tumor weight at 30 mg/kg, ip bid and measured after 14 days; format: functional, organism-based; settings: time 14.0 day
[13] = test system: HT-29; test: Antitumor activity against human HT-29 cells xenografted in BALB/c mouse assessed as inhibition of tumor microvessel density by measuring CD31-index at 30 mg/kg, ip bid for 14 days by immunohistochemical analysis; format: functional; settings: time 14 day

Chain of Prostaglandin G/H synthase 2 (Homo sapiens) (P35354 whole entry, looked up): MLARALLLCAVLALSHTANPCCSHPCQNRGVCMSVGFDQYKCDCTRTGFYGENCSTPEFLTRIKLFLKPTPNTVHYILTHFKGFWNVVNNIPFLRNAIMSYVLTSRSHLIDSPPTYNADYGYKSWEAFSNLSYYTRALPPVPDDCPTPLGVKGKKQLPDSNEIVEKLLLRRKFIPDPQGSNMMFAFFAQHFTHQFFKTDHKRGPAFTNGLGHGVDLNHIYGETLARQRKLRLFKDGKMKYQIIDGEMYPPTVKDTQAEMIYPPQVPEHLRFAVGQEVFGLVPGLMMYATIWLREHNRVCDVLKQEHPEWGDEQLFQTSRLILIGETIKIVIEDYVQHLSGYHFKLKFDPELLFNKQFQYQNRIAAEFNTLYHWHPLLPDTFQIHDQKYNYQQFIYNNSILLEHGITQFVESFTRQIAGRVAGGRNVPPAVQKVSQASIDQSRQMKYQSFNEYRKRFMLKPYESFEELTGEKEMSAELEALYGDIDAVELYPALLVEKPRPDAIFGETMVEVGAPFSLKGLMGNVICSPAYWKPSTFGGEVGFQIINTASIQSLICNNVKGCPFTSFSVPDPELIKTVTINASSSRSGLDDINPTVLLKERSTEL

Compound | inhibition [1] [%] | IC50 [2] [µM] | IC50 [3] [µM] | IC50 [4] [µM] | IC50 [5] [µM] | IC50 [6] [µM] | inhibition [7] [%] | inhibition [8] [%] | inhibition [9] [%] | solubility [10] [µg/mL] | inhibition in vivo at 30 mg/kg [11] [%] | Activity [12] | Inhibition_index [13]
Cc1c(Cl)cccc1Nc1ccccc1C(=O)Nc1ccc(N2CCN(C(=O)OC(C)(C)C)CC2)cc1 | 20.4 | 11.9 | > 30 | > 30 | > 30 | > 30 | 18.9 | 41.9 |  |  |  |  | 
Cc1c(Cl)cccc1Nc1ccccc1C(=O)Nc1ccc(N2CCN(C)CC2)cc1 | 67.8 | 2.09 | 6.61 | 5 | 7.58 | 11.3 | 54.4 | 100 | 25.4 |  |  |  | 
Cc1c(Cl)cccc1Nc1ccccc1C(=O)Nc1ccc(N2CCN(S(C)(=O)=O)CC2)cc1 | 19.7 | > 30 | > 30 | > 30 | > 30 | > 30 | 24.5 | 34.2 | 19.5 |  |  |  | 
COCCOc1ccc(NC(=O)c2ccccc2Nc2cccc(Cl)c2C)cc1 | 29.3 | 7.48 | 15.4 | 14.7 | > 30 | > 30 | 31.7 | 36.5 | 25 |  |  |  | 
Cc1c(Cl)cccc1Nc1ccccc1C(=O)Nc1ccc(OC(=O)CO)cc1 | 45.1 | 13.6 | 14.1 | > 30 | 13.5 | > 30 | 24.9 | 97.9 |  |  |  |  | 
Cc1c(Cl)cccc1Nc1ccccc1C(=O)Nc1ccc(S(N)(=O)=O)cc1 | 24.4 | 28.8 | 13.7 | 13.3 | 7.7 | 14.7 | 42 | 71.3 | 19.8 |  |  |  | 
COCC(=O)Oc1ccc(NC(=O)c2ccccc2Nc2cccc(Cl)c2C)cc1 | 16.6 | 18.7 | 14 | > 30 | 12.6 | > 30 | 25.2 | 47.7 |  |  |  |  | 
Cc1c(Cl)cccc1Nc1ccccc1C(=O)Nc1ccc(C(N)=O)cc1 | 19.6 | 26.1 | > 30 | 22.8 | 17.5 | > 30 |  | 3.53 |  |  |  |  | 
Cc1c(Cl)cccc1Nc1ccccc1C(=O)Nc1ccc(NCCO)cc1 | 40.9 | 12.9 | 29 | > 30 | 13.9 | > 30 | 69 | 100 |  |  |  |  | 
CCN1CCN(c2ccc(NC(=O)c3ccccc3Nc3cccc(Cl)c3C)cc2)CC1 | 71.9 | 2.99 | 10 | 9.51 | 11.5 | 15.8 | 37.1 | 100 |  |  |  |  | 
Cc1c(Cl)cccc1Nc1ccccc1C(=O)Nc1ccc(OCCNC(=O)OC(C)(C)C)cc1 | 18.2 | 1.88 | 0.75 | 28.9 | > 30 | > 30 |  | 28 |  | < 1 | 37.9 | Active | 11.67
CC(=O)N1CCN(c2ccc(NC(=O)c3ccccc3Nc3cccc(Cl)c3C)cc2)CC1 | 29 | > 30 | > 30 | > 30 | > 30 | > 30 | 37.6 | 60.3 |  |  |  |  | 
CCCCN1CCN(c2ccc(NC(=O)c3ccccc3Nc3cccc(Cl)c3C)cc2)CC1 | 53.2 | 9.83 | 15.2 | > 30 | 13.2 | 18.3 | 42.2 | 58.3 | 27.6 |  |  |  | 
Cc1c(Cl)cccc1Nc1ccccc1C(=O)Nc1ccc(OCCN)cc1 | 63.8 | 12 | 9.22 | 12.9 | 6.41 | 25.3 | 28.7 | 43.2 | 41.3 |  |  |  | 
Cc1c(Cl)cccc1Nc1ccccc1C(=O)Nc1ccc(OCCO)cc1 | 46.2 | 6.83 | 16.7 | 24.7 | 9.65 | > 30 | 22.6 | 47.9 |  |  |  |  | 
Cc1c(Cl)cccc1Nc1ccccc1C(=O)Nc1ccc(N2CCOCC2)cc1 | 14.5 | 6.4 | > 30 | > 30 | > 30 | > 30 | 41.6 | 42.9 |  |  |  |  | 
O=c1[nH]cc(F)c(=O)[nH]1 [FLUOROURACIL] |  | 12.2 |  | 8.35 | 7.77 | > 30 |  |  |  |  |  |  | 
Cc1c(Cl)cccc1Nc1ccccc1C(=O)Nc1ccc(N2CCN(C(C)C)CC2)cc1 | 54.6 | 2.97 | 10.8 | 8.29 | 12 | 10.3 | 30.1 | 83.7 | 37.5 |  |  |  | 
Cc1c(Cl)cccc1Nc1ccccc1C(=O)Nc1ccc(N2CCN(c3ccccc3)CC2)cc1 | 13.9 | > 30 | > 30 | > 30 | > 30 | > 30 | 27.6 | 37.8 | 12.6 |  |  |  | 
CCCN1CCN(c2ccc(NC(=O)c3ccccc3Nc3cccc(Cl)c3C)cc2)CC1 | 63.1 | 6.35 | 10.1 | 13.5 | 13.4 | 16.9 | 36.5 | 81 |  |  |  |  | 
